Measured values published in article PMC2363476 (British Journal of Cancer, 2000).
Structures can show the parent of a compound that is named as a salt. Where two headings read alike, the source gives them in different places.

How the values were obtained:
[1] = Plasma pharmacokinetics of irinotecan and SN-38 (reversed-phase HPLC); details: for AUC / Cmax: human, plasma; for AUC: intravenous, Irinotecan AUC; for AUC / Cmax / SN-38/irinotecan AUC ratio / SN-38 Cmax: cycle 1; for Cmax: iv, Irinotecan Cmax, estimated at the end of i.v. infusion; for SN-38 Cmax: observed Cmax
Procedure: Other radiological investi- gations were carried out if indicated. […] Pharmacokinetic analysis was performed using WinNonlin software. […] Patients were seen weekly while on treatment.

[2] = tested on: patients with advanced GI tract adenocarcinoma
Excerpt: The primary objectives of this study were to determine the maximum tolerated doses (MTD) of the two drugs given as short infusions every 3 weeks and to determine the toxic effects and DLT of the combination. Secondary objectives were to measure the pharmacokinetics of irinotecan, SN-38 and raltitrexed, to assess the anti-tumour effect of the combination and to recom- mend a safe dose for phase II evaluation. METHODS Definitions DLT was defined as any grade 3 or 4 non-haematological toxicity (except alopecia) following cycle 1; grade 4 neutropenia or grade 3-4 neutropenia associated with fever (> 38C) or sepsis; grade 4 thrombocytopenia or any grade of thrombocytopenia associated with haemorrhage. MTD was defined as the dose level at which 50% of patients experienced the same DLT. […] Exclusion criteria were: previous treatment with topoisomerase I inhibitor; chronic enteropathy; symptomatic cerebral metastasis or leptomeningeal carcinomatosis; unresolved bowel obstruction; pregnancy; previous malignant disease (except adequately treated carcinoma in situ of the cervix uteri or basal cell carcinoma of the skin). Pre-treatment evaluation Prior to entry, patients were evaluated with a physical examina- tion. An ECG, chest X-ray and CT scan of thorax abdomen and pelvis were carried out on all patients. Other radiological investi- gations were carried out if indicated. A full blood count, renal function tests, liver function tests and prothrombin time were also performed. […] A minimum of three patients were recruited to each dose level, and escalation to the next level was carried out when all three had been observed for a minimum of 2 weeks. The initial design was for the level below MTD to be expanded to six patients. […] Patients received six cycles of treatment subject to favourable response. Further cycles could be administered at the investigators' discre- tion if there was evidence of continuing clinical benefit. […] Pharmacokinetic analysis was performed using WinNonlin software. The calculation of kinetic parameters was performed using a 2- or 3-compartment open model for irinotecan, and a non-compartmental analysis for its metabolite SN-38 and raltitrexed. The following parameters were evaluated: maximum plasma concentration (Cmax ); area under the plasma concentration-time curve (AUC); total body clearance (Cl); volume of distribution at steady state (Vss ) and terminal half-life (t1/2 ). Evaluation and management of toxicity No prophylactic antidiarrhoeal treatment was given. […] Patients were seen weekly while on treatment. Toxicities were graded according to the NCI common toxicity criteria (NCI-CTC). […] Any patient experiencing concomitant vomiting was hospitalized to prevent dehydration. […] All patients with febrile neutropaenia were admitted to hospital and treated with intravenous antibiotics. […] In the case of myelosuppression lasting more than 5 weeks from the date of treatment, the patient was withrawn from the study.

[3] = Plasma pharmacokinetics of raltitrexed (radioimmunoassay); assay type: in vivo; details: human, intravenous
Procedure: […]. […] […]. […] 261 courses were administered. […] Two others had lethargy caused by disease progression. There was no first-cycle neutropenia. […] […]; 6/30 patients (20%) had objective responses. This combination is active with manageable toxicity. […] Other radiological investi- gations were carried out if indicated. […] […]. […] Pharmacokinetic analysis was performed using WinNonlin software. […] […]. Patients were seen weekly while on treatment. […] […]. […] All the other patients were evaluable for toxicity. […] Duration of neutropaenia ranged from 3-8 days. […] Grade 3 lethargy was therefore defined as a DLT. […] […]. […] They therefore continued treatment as scheduled. […] Dose delays were seen after 24/143 cycles (17%). […] Six patients required dose reduction.

[4] = 1998, cited from earlier work
[5] = 1995, cited from earlier work
[6] = dose level I (irinotecan 175, raltitrexed 2.6 mg m-2), n=3
[7] = dose level II (irinotecan 200, raltitrexed 2.6 mg m-2), n=3
[8] = dose level III (irinotecan 250, raltitrexed 2.6 mg m-2), n=3
[9] = dose level IV (irinotecan 300, raltitrexed 2.6 mg m-2), n=3
[10] = dose level V (irinotecan 350, raltitrexed 2.6 mg m-2), n=3
[11] = dose level VI (irinotecan 350, raltitrexed 3.0 mg m-2), n=6
[12] = dose level VII (irinotecan 400, raltitrexed 2.6 mg m-2), n=5
[13] = dose level I (irinotecan 175, raltitrexed 2.6 mg m-2), cycle 1, n=3
[14] = dose level II (irinotecan 200, raltitrexed 2.6 mg m-2), cycle 1, n=3
[15] = dose level III (irinotecan 250, raltitrexed 2.6 mg m-2), cycle 1, n=3
[16] = dose level IV (irinotecan 300, raltitrexed 2.6 mg m-2), cycle 1, n=3
[17] = dose level V (irinotecan 350, raltitrexed 2.6 mg m-2), cycle 1, n=3
[18] = dose level VI (irinotecan 350, raltitrexed 3.0 mg m-2), cycle 1, n=6
[19] = dose level VII (irinotecan 400, raltitrexed 2.6 mg m-2), cycle 1, n=6
[20] = 3.0 mg m-2, 14C labelled raltitrexed, single agent, ref Beale et al

## CCc1c2c(nc3ccc(OC(=O)N4CCC(N5CCCCC5)CC4)cc13)-c1cc3c(c(=O)n1C2)COC(=O)[C@]3(O)CC [irinotecan, Irinotecan hydrochloride]
[1]; [6]
  AUC: 13100 ng·h/mL
  Cmax: 3.53 µg/mL
[1]; [7]
  AUC: 16000 ng·h/mL
  Cmax: 4.7 µg/mL
[1]; [8]
  AUC: 14600 ng·h/mL
  Cmax: 5.92 µg/mL
[1]; [9]
  AUC: 22600 ng·h/mL
  Cmax: 5.98 µg/mL
[1]; [10]
  AUC: 26600 ng·h/mL
  Cmax: 4.89 µg/mL
[1]; [11]
  AUC: 29000 ng·h/mL
  Cmax: 5.43 µg/mL
[1]; [12]
  AUC: 27000 ng·h/mL
  Cmax: 5.41 µg/mL
[2]; with raltitrexed 2.6 mg m-2, 3-weekly (level VII)
  MTD, irinotecan dose: 400 mg m-2
[2]; with raltitrexed 3.0 mg m-2 every 3 weeks (level VI)
  recommended dose for phase II evaluation, irinotecan: 350 mg m-2

## Cc1nc2ccc(CN(C)c3ccc(C(=O)N[C@@H](CCC(=O)O)C(=O)O)s3)cc2c(=O)[nH]1 [raltitrexed]
[3]; [13]
  AUC: 1710 ng·h/mL
  Cmax: 0.561 µg/mL
[3]; dose level I (irinotecan 175, raltitrexed 2.6 mg m-2), cycle 1, n=3, read-out: Raltitrexed Cl (converted)
  clearance: 50.2 mL/min
[3]; dose level I (irinotecan 175, raltitrexed 2.6 mg m-2), cycle 1, n=3, read-out: Raltitrexed Vss
  Vd: 40.7 L
[3]; dose level I (irinotecan 175, raltitrexed 2.6 mg m-2), cycle 1, n=3, read-out: Raltitrexed t1/2 terminal (converted)
  half-life: 9.25 days
[3]; [14]
  AUC: 1440 ng·h/mL
  Cmax: 0.42 µg/mL
[3]; dose level II (irinotecan 200, raltitrexed 2.6 mg m-2), cycle 1, n=3, read-out: Raltitrexed Cl (converted)
  clearance: 78.3 mL/min
[3]; dose level II (irinotecan 200, raltitrexed 2.6 mg m-2), cycle 1, n=3, read-out: Raltitrexed Vss
  Vd: 27.3 L
[3]; dose level II (irinotecan 200, raltitrexed 2.6 mg m-2), cycle 1, n=3, read-out: Raltitrexed t1/2 terminal (converted)
  half-life: 7.92 days
[3]; [15]
  AUC: 1460 ng·h/mL
  Cmax: 0.291 µg/mL
[3]; dose level III (irinotecan 250, raltitrexed 2.6 mg m-2), cycle 1, n=3, read-out: Raltitrexed Cl (converted)
  clearance: 56 mL/min
[3]; dose level III (irinotecan 250, raltitrexed 2.6 mg m-2), cycle 1, n=3, read-out: Raltitrexed Vss
  Vd: 60.2 L
[3]; dose level III (irinotecan 250, raltitrexed 2.6 mg m-2), cycle 1, n=3, read-out: Raltitrexed t1/2 terminal (converted)
  half-life: 14.4 days
[3]; [16]
  AUC: 1810 ng·h/mL
  Cmax: 0.676 µg/mL
[3]; dose level IV (irinotecan 300, raltitrexed 2.6 mg m-2), cycle 1, n=3, read-out: Raltitrexed Cl (converted)
  clearance: 47.2 mL/min
[3]; dose level IV (irinotecan 300, raltitrexed 2.6 mg m-2), cycle 1, n=3, read-out: Raltitrexed Vss
  Vd: 32.3 L
[3]; dose level IV (irinotecan 300, raltitrexed 2.6 mg m-2), cycle 1, n=3, read-out: Raltitrexed t1/2 terminal (converted)
  half-life: 14.5 days
[3]; [17]
  AUC: 2520 ng·h/mL
  Cmax: 0.736 µg/mL
[3]; dose level V (irinotecan 350, raltitrexed 2.6 mg m-2), cycle 1, n=3, read-out: Raltitrexed Cl (converted)
  clearance: 41.7 mL/min
[3]; dose level V (irinotecan 350, raltitrexed 2.6 mg m-2), cycle 1, n=3, read-out: Raltitrexed Vss
  Vd: 30.2 L
[3]; dose level V (irinotecan 350, raltitrexed 2.6 mg m-2), cycle 1, n=3, read-out: Raltitrexed t1/2 terminal (converted)
  half-life: 16.8 days
[3]; [18]
  AUC: 2480 ng·h/mL
  Cmax: 0.772 µg/mL
[3]; dose level VI (irinotecan 350, raltitrexed 3.0 mg m-2), cycle 1, n=6, read-out: Raltitrexed Cl (converted)
  clearance: 40.2 mL/min
[3]; dose level VI (irinotecan 350, raltitrexed 3.0 mg m-2), cycle 1, n=6, read-out: Raltitrexed Vss
  Vd: 25.8 L
[3]; dose level VI (irinotecan 350, raltitrexed 3.0 mg m-2), cycle 1, n=6, read-out: Raltitrexed t1/2 terminal (converted)
  half-life: 12.3 days
[3]; [19]
  AUC: 1500 ng·h/mL
  Cmax: 0.574 µg/mL
[3]; dose level VII (irinotecan 400, raltitrexed 2.6 mg m-2), cycle 1, n=6, read-out: Raltitrexed Cl (converted)
  clearance: 55.7 mL/min
[3]; dose level VII (irinotecan 400, raltitrexed 2.6 mg m-2), cycle 1, n=6, read-out: Raltitrexed Vss
  Vd: 43.8 L
[3]; dose level VII (irinotecan 400, raltitrexed 2.6 mg m-2), cycle 1, n=6, read-out: Raltitrexed t1/2 terminal (converted)
  half-life: 10.9 days
[3]; over all dose ranges, 27 patients, read-out: raltitrexed Cl (converted)
  clearance: 51.7 mL/min
[3]; over all dose ranges, 27 patients, read-out: raltitrexed t1/2 (converted)
  half-life: 12.1 days
[2]; combination treatment
  patients with lower limb cellulitis secondary to raltitrexed: One
[2]; with irinotecan 350 mg m-2 every 3 weeks (level VI)
  recommended dose for phase II evaluation, raltitrexed: 3.0 mg m-2
[2]; with irinotecan 400 mg m-2, 3-weekly (level VII)
  MTD, raltitrexed dose: 2.6 mg m-2
[4]; [20]
  raltitrexed AUC: 2342 ng/h/mL
  raltitrexed Cmax: 0.737 µg/mL
  raltitrexed clearance: 2.48 L/h
[4]; patients with measured creatinine clearance less than 65 ml min-1, ref Judson et al
  change of raltitrexed AUC in renal impairment: approximately doubled

## CCc1c2c(nc3ccc(O)cc13)-c1cc3c(c(=O)n1C2)COC(=O)[C@]3(O)CC [SN-38]
[1]; all dose levels
  SN-38 time of maximal concentrations following the end of i.v. infusion: ≤ 60 min
[1]; [6]
  SN-38/irinotecan AUC ratio: 2.1%
  SN-38 Cmax: 48000 µg/mL
[1]; [7]
  SN-38/irinotecan AUC ratio: 3.2%
  SN-38 Cmax: 74000 µg/mL
[1]; [8]
  SN-38/irinotecan AUC ratio: 2.3%
  SN-38 Cmax: 60000 µg/mL
[1]; [9]
  SN-38/irinotecan AUC ratio: 2.1%
  SN-38 Cmax: 71000 µg/mL
[1]; [10]
  SN-38/irinotecan AUC ratio: 2.9%
  SN-38 Cmax: 57000 µg/mL
[1]; [11]
  SN-38/irinotecan AUC ratio: 2.1%
  SN-38 Cmax: 100000 µg/mL
[1]; [12]
  SN-38/irinotecan AUC ratio: 2.7%
  SN-38 Cmax: 117000 µg/mL
[1]; over the administered dose range
  SN-38 apparent terminal half-life, mean value: 0.462 days
[1]; over the tested dose range
  SN-38/irinotecan AUC ratio, overall mean value: 2.4%
[5]; 168 phase I cancer patients treated with irinotecan alone, ref Chabot et al
  SN-38 t1/2: 0.442 days
[5]; irinotecan monotherapy, ref Abigerges et al
  SN-38/irinotecan AUC ratio, overall mean value: 3.1%
